Among the data in ChEMBL document CHEMBL4261653, “PPARγ-sparing thiazolidinediones as insulin sensitizers. Design, synthesis and selection of compounds for clinical development” (Bioorg Med Chem, 2018) are bioavailability values, retold here.

The data set in a line: Oral bioavailability in rat. Type of data set: ADME, organism-based. Particulars: in vivo.

As usually defined, the bioavailability is dose-corrected exposure relative to a reference, in per cent. Read a low bioavailability as little systemic uptake. As for `CCc1ccc(C(=O)COc2ccc(CC3SC(=O)NC3=O)cc2)nc1` (configuration not stated) [MITOGLITAZONE], the bioavailability worked out at 73%.

Molecule `COc1cccc(C(=O)COc2ccc(CC3SC(=O)NC3=O)cc2)c1` (configuration not stated) came in with a bioavailability of 100%.
